Data set [1] can be described thus: in vitro. The note with it: rat, liver microsomes. In general terms: Liver microsomes are a subcellular fraction often used to study metabolism.
The nature of data set [2]: in vitro. Conditions: human, liver microsomes.
A short description of data set [3]: Oral bioavailability in rat at 10 mg/kg. Type of data set: ADME, organism-based. Conditions: in vivo.
The nature of data set [4]: AUC in rat at 10 mg/kg, po. Type of data set: ADME, organism-based. Details: dose 10 mg/kg, route oral. Conditions: plasma.

As for `Fc1cc(F)c(F)c(O[C@H](c2ccccc2)[C@@H]2CCNC2)c1F`, the microsomal CLint was 200 µL/min/mg in “in vitro [1]” and less than 5 µL/min/mg in the data set “in vitro [2]”.

As to `CCN(CC)C(=O)C1(c2ccccc2)CC1CN` (stereo not drawn), the microsomal CLint in “in vitro [1]” and in the data set “in vitro [2]” was less than 5 µL/min/mg throughout.

`Clc1cccc(O[C@@H](c2ccccc2)[C@H]2CCNC2)c1Cl`: the microsomal CLint in “in vitro [2]” was less than 5 µL/min/mg.

For the molecule `COc1cc(Cl)ccc1O[C@@H](c1ccccc1)[C@H]1CCNC1`, the microsomal CLint was 1990 µL/min/mg in the data set “in vitro [1]” and less than 5 µL/min/mg in the data set “in vitro [2]”.

Regarding `Fc1ccc(O[C@@H](c2ccccc2)[C@H]2CCNC2)c(Cl)c1`, the microsomal CLint in the data set “in vitro [1]” was 185 µL/min/mg; in “in vitro [2]”, less than 5 µL/min/mg.

On to `COc1cc([N+](=O)[O-])ccc1O[C@@H](c1ccccc1)[C@H]1CCNC1`, for which the microsomal CLint in the data set “in vitro [2]” was less than 5 µL/min/mg.

As to `Clc1cc(Cl)cc(O[C@@H](c2ccccc2)[C@H]2CCNC2)c1`, the microsomal CLint was 4530 µL/min/mg in the data set “in vitro [1]” and less than 5 µL/min/mg in “in vitro [2]”.

In the case of `CCOc1ccccc1O[C@@H](c1ccccc1)[C@@H]1CNCCO1` [ESREBOXETINE], the microsomal CLint in the data set “in vitro [1]” is 5100 µL/min/mg; in “in vitro [2]” it was 570 µL/min/mg.

In the case of `Clc1cc(Cl)c(Cl)c(O[C@H](c2ccccc2)[C@@H]2CCNC2)c1`, the microsomal CLint in “in vitro [1]” was 100 µL/min/mg; in “in vitro [2]” it was less than 5 µL/min/mg.

For the molecule `Fc1ccc(F)c(O[C@@H](c2ccccc2)[C@H]2CCNC2)c1Cl`, the figures for the microsomal CLint in “in vitro [1]” and in “in vitro [2]” were 1660 µL/min/mg and 113 µL/min/mg, respectively.

Take `Clc1ccc(Cl)c(O[C@H](c2ccccc2)[C@@H]2CCNC2)c1Cl`: the bioavailability in data set [3] was found to be 6%. The AUC in data set [4] is 70 ng·h/mL. Also, the values for the microsomal CLint in “in vitro [1]” and in the data set “in vitro [2]” were 4600 µL/min/mg and less than 5 µL/min/mg, respectively.

Consider `Clc1ccc(Cl)c(O[C@@H](c2ccccc2)[C@H]2CCNC2)c1Cl`, for which the values for the microsomal CLint in the data set “in vitro [1]” and in the data set “in vitro [2]” were 4620 µL/min/mg and less than 5 µL/min/mg, respectively.

Take `Fc1ccc(F)c(O[C@H](c2ccccc2)[C@@H]2CCNC2)c1Cl`: the microsomal CLint in the data set “in vitro [1]” was found to be 1340 µL/min/mg; in the data set “in vitro [2]”, 115 µL/min/mg.

As for `Clc1cc(Cl)cc(O[C@H](c2ccccc2)[C@@H]2CCNC2)c1`, the microsomal CLint was 21 µL/min/mg in “in vitro [1]” and less than 5 µL/min/mg in the data set “in vitro [2]”.

Broadly, the microsomal CLint is a measure of how fast metabolising enzymes remove a compound, apart from limits set by blood flow. High values mean rapid turnover, low ones slow turnover. Usually bioavailability stands for the share of a dose that reaches the circulation, judged against a reference dose that is usually intravenous. Lower therefore signals poor availability. For orientation: AUC means concentration integrated over time.

(Values after ChEMBL document CHEMBL2331276, “A novel class of 3-(phenoxy-phenyl-methyl)-pyrrolidines as potent and balanced norepinephrine and serotonin reuptake inhibitors: synthesis and structure-activity relationships” (Bioorg Med Chem Lett, 2013).)
